# Source: patent publication US20120231015A1, “FRAGILE X MENTAL RETARDATION PROTEIN (FMRP), COMPOSITIONS, AND METHODS RELATED THERETO” (EMORY UNIVERSITY, priority 2009, published 2012)
# “Also recorded” adds a separate entry of the source.
# Experiments:
# cortical SNS = experiment: Metabolic labeling of cortical SNS with [35S]methionine (synaptic translation rates); type: cell-based, mouse; conditions: for translation rates (amino acid incorporation): antagonist 50 μM; for translation rates ([35S] incorporation in 5 min): antagonist 10 μM
# Description: (§1) Cortical SNS were prepared as described previously (Muddashetty et al., 2007) and treated with the indicated antagonists or solvent for 5 min at 37° C., for some experiments followed by DHPG (100 μM) for 15 min at 37° C. as indicated, and with puromycin (2 mM) for 30 min at 37° C. Metabolic labeling was performed with 100 μCi Pro-Mix, L-(35S) in vitro cell labeling mix (GE Healthcare) for 5 min. Triplicate samples from time point 0 and 5 min were washed once in homogenization buffer, followed by lysis (100 mM Tris-HCl, pH 7.4, 150 mM NaCl, 0.5% deoxycholate, and 1% Triton X-100, supplemented with proteinase inhibitors) and TCA precipitation. 35S-incorporation levels were estimated by scintillation counting.
# [1] = tested on: primary hippocampal neurons; experiment: Constitutive AMPAR internalization assay; type: cell-based, mouse; conditions: WT neurons
# p110beta mRNA = p110beta mRNA in polysomal fractions of sucrose gradients, cortical SNS; type: cell-based, mouse
# Description: Gradient preparation, centrifugation, fractionation, RNA purification, and qRT-PCRs were performed as described previously (Muddashetty et al., 2007).
# as §1, with “[…],” for “for some experiments followed by DHPG (100 μM) for 15 min at 37° C. as indicated,”
# PI3K (p110beta) = experiment: In vitro PI3K assay with immunoprecipitated p110beta from treated cortical synaptoneurosomes (SNS); type: cell-based, mouse
# Description: In vitro PI3K assays were performed as described previously (Ye et al., (2000) Cell 103:919-930) using p110beta antibody. In vitro extracellular signal-regulated kinase (ERK) activity assays were performed using the p44/42 MAP Kinase Assay kit from Cell Signaling Technology according to the manual. HEK293T cells were cultured in DMEM supplemented with 10% FBS. Fmr1-specific siRNA was transfected using LF2000 (Invitrogen) according to the manual. At 48 h after transfection, cells were scraped from the dish with PBS, divided into two equal parts for PI3K and ERK activity assays, respectively. […] Cortical synaptoneurosomes (SNS) were prepared as described previously (Muddashetty et al., (2007) J Neurosci 27:5338-5348.). SNS were split in two equal parts for PI3K and ERK activity assays. Cells and SNS were lysed in kinase assay buffers (for PI3K assay: 50 mM Tris-HCl, pH 7.4, 40 mM NaCl, 1 mM EDTA, 0.5% Triton X-100, 1.5 mM Na3VO4, 50 mM NaF, 10 mM sodium pyrophosphate, and 10 mM sodium β-glycerol phosphate, supplemented with proteinase inhibitors; for ERK activity assay: lysis buffer provided by Cell Signaling Technology). Lysates were cleared by centrifugation, and protein concentrations were determined by the Bradford method. For both kinase assays, the same amount of protein was used for wild-type (WT) and Fmr1 KO SNS or sifmr1 knockdown (KD) and sictr HEK293T cells, respectively. For measuring PI3K activity following various treatments, SNS were incubated for 10 min at 37° C. with either 100 μM (S)-3,5-dihydroxyphenylglycine (DHPG) or 10 μM 2-methyl-6-(phenylethynyl)-pyridine (MPEP) or for 1 h at 37° C. with tat-mGluR5-CT or tat-mGluR5-MUT peptides (5 μM) before lysis. For PI3K assays with cortical neurons, cells at 11d in vitro (DIV) were transfected with 10 μl of control adenovirus or adenovirus carrying short-hairpin PIKE-L (as described previously by Tang et al., (2008) Nat Cell Biol 10:698-706.) for 48 h. PI3K assays were performed with 300 μg of protein as described above. To confirm PIKE-L knockdown, 80 μg of protein was used for Western blot analyses using anti-PIKE-L antibody.
# p110beta = p110beta protein levels by Western blot in cortical SNS; type: cell-based, mouse; conditions: DHPG 15 min, 50 μM
# Description: SDS-PAGE and Western blots were performed as described previously (Muddashetty et al., 2007) and quantified using NIH ImageJ. Signal intensities of p110beta- and FMRP-specific bands were normalized to tubulin signal on the same blot. Signal intensities of phospho-proteins were normalized to total levels of the respective protein on the same blot. For this purpose, Western blots were stripped after detection with the phospho-specific antibodies using 100 mM β-mercaptoethanol and 2% SDS in 62.5 mM Tris-HCl, pH 6.8, at 50° C. for 30 min and, after extensive washing, detected with the respective antibody specific for the total protein.
# as §1, with “[…],” for “for some experiments followed by DHPG (100 μM) for 15 min at 37° C. as indicated,”
# PDK1 = conditions: hippocampal slices from Fmr1 KO mice; cited from earlier work
# rat hippocampal neurons = conditions: siRNA-mediated FMRP deficiency; cited from earlier work
structure (smiles),measurement,setting,value
"N#CC(=C(N)Sc1ccccc1N)C(C#N)=C(N)Sc1ccccc1N [U0126, 1,4-diamino-2,3-dicyano-1,4-bis(o-aminophenylmercapto)butadiene]",DHPG-induced translational activation after antagonist pretreatment,"cortical SNS; Fmr1 KO SNS, DHPG 100 μM, 15 min",did not rescue DHPG-stimulated translation; also recorded: but not by ERK1/2 inhibition
same,DHPG-induced translational activation after antagonist pretreatment,"cortical SNS; WT SNS, DHPG 15 min, 100 μM",abolished DHPG-induced translational increase; also recorded: abolish
same,"translation rates, genotype dependence of effect","cortical SNS; WT and Fmr1 KO SNS, U0126 20 μM",reduced protein synthesis levels independently of genotype to the same extent; also recorded: did not show a genotype-specific effect on translation rates
same,constitutive endocytosis of AMPARs in distal dendrites (median),[1]; U0126 20 μM for 1 h,43.8
COc1ccc(C[C@H](N)C(=O)N[C@H]2[C@@H](O)[C@H](n3cnc4c(N(C)C)ncnc43)O[C@@H]2CO)cc1 [puromycin],association of p110beta mRNA with synaptoneurosomal polysomes,"p110beta mRNA; SNS, puromycin 2 mM, 30 min at 37° C.",sensitive to puromycin treatment
N[C@@H](CCCP(=O)(O)O)C(=O)O [APV],translation rates (amino acid incorporation),cortical SNS; Fmr1 KO SNS,failed to reduce augmented translation in KO
same,"translation, genotype dependence of effect","cortical SNS; WT and Fmr1 KO SNS, APV 50 μM",affected translation similarly across genotypes
"N[C@H](C(=O)O)c1cc(O)cc(O)c1 [DHPG, (S)-3,5-dihydroxyphenylglycine]",PI3K activity,"PI3K (p110beta); Fmr1 KO SNS, DHPG 100 μM, 10 min",failed to activate PI3K; also recorded: significant reduction of PI3K activity; also recorded: decreased PI3K activity
same,PI3K activity,"PI3K (p110beta); WT SNS, DHPG 100 μM, 10 min",twofold increase
same,p110beta protein expression,p110beta; Fmr1 KO SNS,occluded; also recorded: does not increase protein expression
same,p110beta protein levels,p110beta; WT SNS,led to increased p110beta protein levels; also recorded: increases p110beta protein levels
same,p110beta mRNA in puromycin-sensitive polysomal fractions (translation),"p110beta mRNA; Fmr1 KO SNS, DHPG 15 min, 50 μM",occluded
same,p110beta mRNA in puromycin-sensitive polysomal fractions,"p110beta mRNA; WT SNS, DHPG 15 min, 50 μM",induced a significant shift of p110beta mRNA into puromycin-sensitive fractions; also recorded: leads to a shift of p110beta mRNA into puromycin-sensitive fractions
same,DHPG-induced translational activation,"cortical SNS; Fmr1 KO SNS, no antagonist",occluded
same,phosphorylation of PDK1,PDK1,does not induce the phosphorylation of PDK1
"O=c1cc(N2CCNCC2)oc2c(-c3ccccc3)cccc12 [LY303511, 2-(1-piperazinyl)-8-phenyl-4H-1-benzopyran-4-one]",translation rates,"cortical SNS; SNS, inactive analog of LY294002",did not show any effect; also recorded: did not alter translation rates
"O=c1cc(N2CCOCC2)oc2c(-c3ccccc3)cccc12 [LY294002, 2-(4-morpholinyl)-8-phenyl-1(4H)-benzopyran-4-one]",translation rates (amino acid incorporation),cortical SNS; Fmr1 KO SNS,could specifically rescue the excessive synaptic translation; also recorded: significantly reduced amino acid incorporation rates
same,constitutive endocytosis of AMPARs in distal dendrites (median),[1]; LY294002 50 μM for 1 h,35.3
Cc1cc(C(=O)O)ccc1[C@H](N)C(=O)O [LY367385],translation rates ([35S] incorporation in 5 min),cortical SNS; Fmr1 KO SNS,reduced synaptic Fmr1 KO translation; also recorded: significantly decreased translation rates
"Cc1cccc(C#Cc2ccccc2)n1 [MPEP, 2-methyl-6-(phenylethynyl)-pyridine]",PI3K activity,"PI3K (p110beta); Fmr1 KO SNS, MPEP 10 μM, 10 min at 37° C.",significantly reduced PI3K function; also recorded: significantly reduces PI3K activity
same,PI3K activity,"PI3K (p110beta); WT SNS, MPEP 10 μM, 10 min at 37° C.",no significant effect
same,translation rates ([35S] incorporation in 5 min),cortical SNS; Fmr1 KO SNS,reduced synaptic Fmr1 KO translation; also recorded: significantly decreased translation rates
same,levels of internalized AMPARs,rat hippocampal neurons,rescued increased levels of internalized AMPARs
